Experimental data published in patent US11021690B2, “Mutant-type uricase, PEG modified mutant-type uricase, and application thereof” (SHANGHAI INSTITUTE OF BIOLOGICAL PRODUCTS CO., LTD., priority 2015, dated 2021).

How the values were obtained:
[1] = system: PEG-K103C: recombinant urate oxidase (uricase, PBC, SEQ ID NO: 1) mutant K103C, PEG-modified (mPEG-MAL, approximately 20 kD); assay: Determination of Michaelis constant of PEG-modified K103C (uric acid oxidation, UV absorbance at 290 nm); assay type: biochemical; settings: substrate uric acid, after PEG modification
Protocol: (§1) The activity of uricase was detected by UV spectrophotometry, enzymatic reaction rate was detected by measuring the decrease in absorbance at 290 nm caused by the oxidation of uric acid to allantoin. The enzyme activity unit is defined as follows: at 37° C., pH 8.5, the amount of uricase needed to catalyze the decomposition of 1 μmol of uric acid per minute is defined as 1 enzyme activity unit. The efficacy of uricase is represented as the activity unit of protein per mg (U/mg). […] Therefore, the oxidation of 1 μM uric acid in the reaction caused the reduction of absorbance by 12.04 mAu. The absorbance is derived from the linear part as the changes of the uric acid concentration. Wherein the calculation formula of enzyme activity is shown as follows: Enzyme activity (U/ml)=(ODb−ODt)*Vt*df/12.04*1.0*Vs*t
(§2) (Odb: the absorbance value in a blank control tube; Odt: the absorbance value in a detection tube; Vt: the total reaction volume, 1.28 ml; df: the dilution fold before sample addition to the system; Vs: the total volume after adding the test sample of uricase, 0.2 ml; t: the reaction time, 5 min; 12.04: the molar extinction coefficient of the substrate, uric acid under the test conditions; 1.0: optical path of cuvette, 1.0 cm) Enzyme activity (U/mg)=(U/ml)/C
(§3) (1) 1 mL of uric acid working solution was added to 2 EP tubes, respectively, marked as a reaction tube and a control tube, and subjected to the warm bath at 37° C. for 5 mins;
(§4) (2) Reaction tube: 200 μL of diluted enzyme solution was added at 37° C., and reacted for 5 min; control tube: no treatment at 37° C. and reacted for 5 min;
(§5) (3) Reaction tube: 80 μL, 20% of KOH was added to quench the reaction; control tube: after 80 μL, 20% of KOH was added to quench the reaction, 200 μL of diluted enzyme solution was added;
(4) UV absorption wavelength was determined at 290 nm. […]
(§6) By comparing Michaelis constant, the maximum enzymatic reaction rate and the catalytic constant of the mutant K103C before and after PEG modification, the effect of PEG modification on mutant uricase was evaluated.

[2] = system: recombinant urate oxidase K103C (uricase, PBC, SEQ ID NO: 1, mutant K103C), unmodified; assay: Determination of Michaelis constant of unmodified K103C (uric acid oxidation, UV absorbance at 290 nm); assay type: biochemical; settings: substrate uric acid, before PEG modification
Protocol: as §1, §2, §3, §4, §5
(4) UV absorption wavelength was determined at 290 nm.
as §6

For `O=c1[nH]c(=O)c2[nH]c(=O)[nH]c2[nH]1` [uric acid], the Km [1] was 10.8 µM, the Vmax [1] was 1.823 µM/min and the kcat [1] was 12.396 s⁻¹. For the same molecule, the Km [2] was 11.4 µM, the Vmax [2] was 2.333 µM/min and the kcat [2] was 15.864 s⁻¹.
